Our source for the inhibition, cytotoxicity and IC50 values is ChEMBL document CHEMBL3792344, “Synthesis, molecular properties prediction and anticancer, antioxidant evaluation of new edaravone derivatives” (Bioorg Med Chem Lett, 2016).

Values after ≈ are worked out from the molar mass of the structure shown.

Series [1] in a line: Cytotoxicity against human PC3 cells assessed as inhibition of cell viability at 25 uM after 48 hrs by MTT assay relative to control. The following applies: PC-3, 48 h. Type of series: functional. (Tetrazolium assays rely on reduction of a dye to a coloured formazan, in cell work by metabolically active cells.)
Another series has as its system A549. Briefly: Cytotoxicity against human A549 cells assessed as inhibition of cell viability at 25 uM after 48 hrs by MTT assay relative to control. Type of series: functional. The following applies: A549, 48 h.
Series [2] can be described thus: Cytotoxicity against HEK293T cells assessed as inhibition of cell viability at 25 uM after 48 hrs by MTT assay relative to control. In kind it is cell-based, HEK-293T. The following applies: human, read-out: INH.
Series [3] can be described thus: Antioxidant activity assessed as DPPH free radical scavenging activity incubated for 30 mins in dark condition by spectrophotometric method. In kind it is physicochemical. A general note: DPPH is a stable violet radical that fades when it is reduced.
The nature of series [4]: Cytotoxicity against human PC3 cells assessed as inhibition of cell viability after 48 hrs by MTT assay. Type of series: functional, cell-based. The following applies: PC-3, 48 h.
Series [5] in a line: Cytotoxicity against HEK293T cells assessed as inhibition of cell viability after 48 hrs by MTT assay. Type of series: cell-based. The note with it: Homo sapiens, HEK-293T.

With `COc1c(C(=O)NCc2ccc(Cl)cc2)c(C)nn1-c1ccccc1`, the inhibition at 25 µM in series [1] turned out to be 45.8%; in the series on A549, 87%. For the same compound, the cytotoxicity at 48 h, 25 µM in series [2] was 49.4%. In addition, in series [3], the half-maximal inhibitory concentration (IC50) worked out at 16.07 µg/mL (≈ 45.2 µM).
With `COc1c(-c2csc3ccccc23)c(C)nn1-c1ccccc1`, the inhibition at 25 µM in series [1] came to 32.4%; in the series on A549, 73.5%. The cytotoxicity at 48 h, 25 µM in series [2] was found to be 55%. For the same compound, in series [3], the IC50 stood at 50.67 µg/mL (≈ 158 µM).
On the same counts, the results for `COc1c(-c2ccc(F)cc2)c(C)nn1-c1ccccc1` are 46.3%, 63.9%, 40.9% and 35.97 µg/mL (≈ 127 µM).
Regarding `COc1cccc2c1C(=O)c1c(O)c3c(c(O)c1C2=O)C[C@@](O)(C(=O)CO)C[C@@H]3O[C@H]1C[C@H](N)[C@H](O)[C@H](C)O1` [DOXORUBICIN], the IC50 in series [4] amounted to 2100 nM; in series [5], 1200 nM.
For the compound `COc1ccc(CNC(=O)c2c(C)nn(-c3ccccc3)c2OC)cc1`, the inhibition at 25 µM is 34.6% in series [1] and 60.9% with A549. The cytotoxicity at 48 h, 25 µM in series [2] was determined as 44.3%. Besides, the IC50 in series [3] was found to be 28.42 µg/mL (≈ 80.9 µM).
As to `COc1c(C(=O)NC(C)c2ccccc2)c(C)nn1-c1ccccc1` (stereo not drawn), the inhibition at 25 µM in series [1] was found to be 29.7%; in the series with A549, 52.7%. The cytotoxicity at 48 h, 25 µM in series [2] came out at 31.8%. Also, the IC50 in series [3] is 26.98 µg/mL (≈ 80.4 µM).
On to `COc1c(-c2ccccc2)c(C)nn1-c1ccccc1`, for which the inhibition at 25 µM in series [1] worked out at 16.2%; with A549, 65.7%. The cytotoxicity at 48 h, 25 µM in series [2] stood at 28.2%. Besides, the IC50 in series [3] was 32.2 µg/mL (≈ 122 µM).
In the case of `O=C1O[C@H]([C@@H](O)CO)C(O)=C1O` [ASCORBIC ACID], in series [3], the half-maximal inhibitory concentration (IC50) was 8.09 µg/mL (≈ 45.9 µM).
On to `COc1c(C(=O)NCc2ccccc2)c(C)nn1-c1ccccc1`, for which the inhibition at 25 µM in series [1] worked out at 8.71%; with A549 it was 46.7%. Further, in series [2], the cytotoxicity at 48 h, 25 µM was 22.2%. For the same compound, the half-maximal inhibitory concentration (IC50) in series [3] is 23.63 µg/mL (≈ 73.5 µM).
`CC1=NN(c2ccccc2)C(=O)C1` [EDARAVONE]: the values for the inhibition at 25 µM (in series [1]; with A549) were 1.43% and 19.2%, respectively. In addition, in series [2], the cytotoxicity at 48 h, 25 µM was 2.4%. For the same compound, the concentration for half-maximal inhibition (IC50) in series [3] is 54.4 µg/mL (≈ 312 µM).
Consider `COc1c(-c2ccc(O)cc2)c(C)nn1-c1ccccc1`, for which the inhibition at 25 µM in series [1] came to 4.9%; in the series on A549, 55.9%. In addition, the cytotoxicity at 48 h, 25 µM in series [2] was 5.58%. For the same compound, in series [3], the IC50 came to 37.03 µg/mL (≈ 132 µM).
For the compound `COc1c(C(=O)O)c(C)nn1-c1ccccc1`, the inhibition at 25 µM in series [1] worked out at 3.19%; with A549, 22.1%. In addition, the cytotoxicity at 48 h, 25 µM in series [2] was found to be 12.1%. For the same compound, the IC50 in series [3] came out at 16.27 µg/mL (≈ 70.1 µM).
On the same counts, the results for `COc1c(-c2ccc(C#N)cc2)c(C)nn1-c1ccccc1` are 30.2%, 54.7%, 57.8% and 41.98 µg/mL (≈ 145 µM).
In the same order, the values of `COc1cc(C)nn1-c1ccccc1` are 5.91%, 55.8%, 23% and 49.18 µg/mL (≈ 261 µM).
In the same order, the values of `COc1c(-c2ccsc2)c(C)nn1-c1ccccc1` are 36.6%, 40%, 22.2% and 30.08 µg/mL (≈ 111 µM).
As for `COc1c(-c2ccc(C)cc2)c(C)nn1-c1ccccc1`, the results for the inhibition at 25 µM (in series [1]; in the series on A549) were 18.5% and 44%, respectively. In series [2], the cytotoxicity at 48 h, 25 µM amounted to 19.7%. In addition, in series [3], the IC50 stood at 18.6 µg/mL (≈ 66.8 µM).
On the same counts, the results for `COc1ccc(-c2c(C)nn(-c3ccccc3)c2OC)c(OC)c1` are 33%, 74.7%, 48.1% and 38.99 µg/mL (≈ 120 µM).
On the same counts, the results for `COCc1ccccc1-c1c(C)nn(-c2ccccc2)c1OC` are 36%, 80.5%, 56.5% and 20.05 µg/mL (≈ 65 µM).
Consider `COc1c(-c2cccc(C)c2)c(C)nn1-c1ccccc1`, for which the inhibition at 25 µM in series [1] was found to be 59.3%; in the series with A549 it was 85.9%. Moreover, the cytotoxicity at 48 h, 25 µM in series [2] came to 70.5%. In addition, the IC50 in series [3] was 26.4 µg/mL (≈ 94.8 µM).
In the case of `COc1c(-c2ccc3ccccc3c2)c(C)nn1-c1ccccc1`, the inhibition at 25 µM in series [1] is 27.6%; with A549, 71%. Besides, the cytotoxicity at 48 h, 25 µM in series [2] was found to be 53.6%. For the same compound, the half-inhibitory concentration (IC50) in series [3] was found to be 53.56 µg/mL (≈ 170 µM).
In the same order, the values of `COc1ccc(-c2c(C)nn(-c3ccccc3)c2OC)cc1` are 24.3%, 70.7%, 46.3% and 24.98 µg/mL (≈ 84.9 µM).
With `COc1c(Br)c(C)nn1-c1ccccc1`, the inhibition at 25 µM in series [1] worked out at 6.38%; in the series with A549, 30.8%. In addition, the cytotoxicity at 48 h, 25 µM in series [2] was 5.96%. Also, the IC50 in series [3] came to 36.96 µg/mL (≈ 138 µM).

A word on the inhibition: it is the change of the read-out against control, counted positive when it falls. Usually IC50 stands for the concentration at which inhibition is half-maximal.
